From EP4745135A1 (Gluetacs Therapeutics (Shanghai) Co., Ltd., priority 2023, dated 2025)

How the values were obtained:
[1] = molecular target: T1, IKZF3 (Homo sapiens, UniProt Q96SW2+Q9UKT9); test: Western blot, degradation of substrate protein in hPBMCs; format: cell-based
T1 construct: effects of the compounds of the present disclosure on the expression of target proteins in cells; endogenous in cells; host or cells: human PBMCs (Milecell Biotechnologies)

[2] = molecular target: T2, IKZF2 (Homo sapiens, UniProt Q96SW2+Q9UKS7); test: as above; format: cell-based
T2 construct: effects of the compounds of the present disclosure on the expression of target proteins in cells; endogenous in cells; host or cells: human PBMCs (Milecell Biotechnologies)
T2 sequence (Q9UKS7 whole entry): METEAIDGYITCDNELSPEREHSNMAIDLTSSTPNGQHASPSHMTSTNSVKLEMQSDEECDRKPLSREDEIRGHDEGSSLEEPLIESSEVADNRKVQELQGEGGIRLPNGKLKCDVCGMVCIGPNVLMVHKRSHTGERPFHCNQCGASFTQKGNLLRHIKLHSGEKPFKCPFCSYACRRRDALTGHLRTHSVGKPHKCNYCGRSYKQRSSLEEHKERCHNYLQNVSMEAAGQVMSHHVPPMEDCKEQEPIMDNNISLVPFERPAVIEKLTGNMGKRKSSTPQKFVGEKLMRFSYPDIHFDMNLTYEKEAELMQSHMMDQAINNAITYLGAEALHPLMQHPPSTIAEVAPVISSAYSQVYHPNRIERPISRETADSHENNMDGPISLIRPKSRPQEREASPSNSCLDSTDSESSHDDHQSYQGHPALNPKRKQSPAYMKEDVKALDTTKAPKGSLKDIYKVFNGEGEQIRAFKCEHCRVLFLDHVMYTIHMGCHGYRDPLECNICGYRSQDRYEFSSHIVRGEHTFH
T2 sequence (Q96SW2 whole entry): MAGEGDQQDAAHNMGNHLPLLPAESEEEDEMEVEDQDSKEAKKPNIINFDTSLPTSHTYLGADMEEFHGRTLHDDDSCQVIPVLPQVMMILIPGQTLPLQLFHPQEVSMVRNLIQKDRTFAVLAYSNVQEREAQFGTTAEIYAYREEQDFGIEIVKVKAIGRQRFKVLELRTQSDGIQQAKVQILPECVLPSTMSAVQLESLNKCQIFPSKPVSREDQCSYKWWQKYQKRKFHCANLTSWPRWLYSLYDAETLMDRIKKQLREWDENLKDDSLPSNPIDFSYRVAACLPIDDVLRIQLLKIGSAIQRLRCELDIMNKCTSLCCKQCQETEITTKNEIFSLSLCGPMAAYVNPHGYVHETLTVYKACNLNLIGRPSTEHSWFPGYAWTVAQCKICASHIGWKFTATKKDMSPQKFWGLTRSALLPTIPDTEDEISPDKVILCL
T2 sequence (Q16531 whole entry partner): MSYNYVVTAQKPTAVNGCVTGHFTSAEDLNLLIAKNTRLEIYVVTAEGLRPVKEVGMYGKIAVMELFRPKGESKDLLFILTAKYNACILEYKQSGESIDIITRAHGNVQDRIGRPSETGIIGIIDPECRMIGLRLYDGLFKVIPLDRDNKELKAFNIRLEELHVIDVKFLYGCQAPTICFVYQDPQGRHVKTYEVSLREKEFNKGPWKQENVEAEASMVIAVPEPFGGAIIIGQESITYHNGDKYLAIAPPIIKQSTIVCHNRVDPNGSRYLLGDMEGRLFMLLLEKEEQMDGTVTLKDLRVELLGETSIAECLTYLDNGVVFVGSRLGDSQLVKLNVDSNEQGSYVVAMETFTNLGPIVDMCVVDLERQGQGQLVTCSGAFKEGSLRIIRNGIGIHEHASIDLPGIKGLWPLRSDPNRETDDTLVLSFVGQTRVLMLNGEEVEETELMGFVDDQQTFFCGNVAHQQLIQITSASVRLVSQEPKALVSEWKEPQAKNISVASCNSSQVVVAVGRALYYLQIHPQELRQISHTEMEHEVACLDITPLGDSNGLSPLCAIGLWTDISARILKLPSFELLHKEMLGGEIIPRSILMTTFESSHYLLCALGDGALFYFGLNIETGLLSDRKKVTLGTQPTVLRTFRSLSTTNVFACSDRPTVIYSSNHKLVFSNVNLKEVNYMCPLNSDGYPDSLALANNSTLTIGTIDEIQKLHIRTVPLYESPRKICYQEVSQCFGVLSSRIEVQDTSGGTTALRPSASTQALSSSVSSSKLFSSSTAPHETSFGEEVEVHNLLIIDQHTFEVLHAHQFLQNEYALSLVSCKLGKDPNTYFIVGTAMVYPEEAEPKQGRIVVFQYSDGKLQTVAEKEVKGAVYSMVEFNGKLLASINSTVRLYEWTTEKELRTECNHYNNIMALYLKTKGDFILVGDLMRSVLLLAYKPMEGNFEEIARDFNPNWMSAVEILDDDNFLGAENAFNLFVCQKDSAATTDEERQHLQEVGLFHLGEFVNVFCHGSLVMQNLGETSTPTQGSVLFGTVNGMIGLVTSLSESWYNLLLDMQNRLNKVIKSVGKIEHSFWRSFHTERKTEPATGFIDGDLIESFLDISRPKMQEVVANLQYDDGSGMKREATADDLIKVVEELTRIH

[3] = molecular target: T3, CK1α (Homo sapiens, UniProt P48729+Q96SW2); test: as above; format: cell-based
T3 construct: effects of the compounds of the present disclosure on the expression of target proteins in cells; endogenous in cells; host or cells: human PBMCs (Milecell Biotechnologies)
T3 sequence (P48729 whole entry): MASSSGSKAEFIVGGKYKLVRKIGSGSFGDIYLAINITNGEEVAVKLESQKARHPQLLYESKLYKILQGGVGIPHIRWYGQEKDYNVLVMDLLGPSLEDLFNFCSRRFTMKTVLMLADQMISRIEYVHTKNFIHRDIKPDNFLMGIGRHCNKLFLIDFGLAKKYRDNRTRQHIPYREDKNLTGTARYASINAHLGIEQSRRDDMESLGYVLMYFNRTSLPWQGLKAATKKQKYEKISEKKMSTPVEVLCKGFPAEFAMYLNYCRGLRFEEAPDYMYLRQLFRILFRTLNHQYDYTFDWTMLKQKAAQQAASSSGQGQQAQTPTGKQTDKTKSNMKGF
T3 sequence (Q96SW2 whole entry): as the sequence (Q96SW2 whole entry) above
T3 sequence (Q16531 whole entry partner): as the sequence (Q16531 whole entry partner) above

[4] = molecular target: T4, WEE1 (Homo sapiens, UniProt P30291+Q96SW2); test: as above; format: cell-based
T4 construct: effects of the compounds of the present disclosure on the expression of target proteins in cells; endogenous in cells; host or cells: human PBMCs (Milecell Biotechnologies)
T4 sequence (P30291 whole entry): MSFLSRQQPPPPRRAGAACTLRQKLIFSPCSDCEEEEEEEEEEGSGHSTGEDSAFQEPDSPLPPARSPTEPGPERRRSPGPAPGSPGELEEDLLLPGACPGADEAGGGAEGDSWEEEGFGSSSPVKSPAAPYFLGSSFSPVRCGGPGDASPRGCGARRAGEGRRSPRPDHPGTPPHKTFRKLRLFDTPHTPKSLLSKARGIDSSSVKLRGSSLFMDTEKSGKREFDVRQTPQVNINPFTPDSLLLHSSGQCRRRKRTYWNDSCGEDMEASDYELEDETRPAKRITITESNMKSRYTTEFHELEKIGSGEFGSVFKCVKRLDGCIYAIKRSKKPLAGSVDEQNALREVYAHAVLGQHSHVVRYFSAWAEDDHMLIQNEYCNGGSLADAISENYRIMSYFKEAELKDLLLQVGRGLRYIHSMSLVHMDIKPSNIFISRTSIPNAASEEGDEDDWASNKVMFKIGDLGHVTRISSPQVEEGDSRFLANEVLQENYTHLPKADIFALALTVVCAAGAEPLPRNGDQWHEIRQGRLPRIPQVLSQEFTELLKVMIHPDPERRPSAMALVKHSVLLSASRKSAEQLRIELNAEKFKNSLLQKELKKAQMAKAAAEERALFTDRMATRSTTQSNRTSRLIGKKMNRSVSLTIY
T4 sequence (Q96SW2 whole entry): as the sequence (Q96SW2 whole entry) above
T4 sequence (Q16531 whole entry partner): as the sequence (Q16531 whole entry partner) above

[5] = molecular target: T5, IKZF1 (Homo sapiens, UniProt Q13422+Q96SW2); test: as above; format: cell-based
T5 construct: effects of the compounds of the present disclosure on the expression of target proteins in cells; endogenous in cells; host or cells: human PBMCs (Milecell Biotechnologies)
T5 sequence (Q13422 whole entry): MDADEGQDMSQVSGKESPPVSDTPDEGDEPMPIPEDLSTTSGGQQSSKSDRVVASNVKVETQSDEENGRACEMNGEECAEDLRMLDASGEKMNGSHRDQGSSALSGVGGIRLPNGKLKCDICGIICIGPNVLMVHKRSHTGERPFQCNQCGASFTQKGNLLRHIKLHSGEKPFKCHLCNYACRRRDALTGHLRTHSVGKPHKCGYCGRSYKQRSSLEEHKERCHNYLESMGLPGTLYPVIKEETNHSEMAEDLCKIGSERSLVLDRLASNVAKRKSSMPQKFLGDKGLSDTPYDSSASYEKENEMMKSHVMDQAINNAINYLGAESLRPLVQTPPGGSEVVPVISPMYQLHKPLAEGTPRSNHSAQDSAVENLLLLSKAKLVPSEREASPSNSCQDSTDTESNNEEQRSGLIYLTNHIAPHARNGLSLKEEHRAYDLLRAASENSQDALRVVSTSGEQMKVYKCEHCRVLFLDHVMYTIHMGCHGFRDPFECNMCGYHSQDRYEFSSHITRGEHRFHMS
T5 sequence (Q96SW2 whole entry): as the sequence (Q96SW2 whole entry) above
T5 sequence (Q16531 whole entry partner): as the sequence (Q16531 whole entry partner) above

[6] = molecular target: T6, human Cereblon WT GST-tagged protein (Homo sapiens, UniProt Q96SW2); test: CRBN-binding affinity, HTRF (CEREBLON BINDING kit); conditions: for inhibition at 0.5 µM: read-out: Inhibition Rate at 0.5 µM (%); for inhibition at 2 µM: read-out: Inhibition Rate at 2 µM (%)
T6 construct: purchased CISBIO 64BDCRBNPEH
T6 sequence (Q96SW2 whole entry): as the sequence (Q96SW2 whole entry) above

[7] = system: GSPT1; test: Western blot, degradation of substrate protein in hPBMCs; format: cell-based, Human
[8] = 24 hours treatment, compounds at 50 nM and 500 nM (concentration behind the class not stated)
[9] = Western blot, 24 hours of compound treatment, compounds tested at 50 nM and 500 nM (concentration for the table not stated)

T1 sequence (Q9UKT9 whole entry): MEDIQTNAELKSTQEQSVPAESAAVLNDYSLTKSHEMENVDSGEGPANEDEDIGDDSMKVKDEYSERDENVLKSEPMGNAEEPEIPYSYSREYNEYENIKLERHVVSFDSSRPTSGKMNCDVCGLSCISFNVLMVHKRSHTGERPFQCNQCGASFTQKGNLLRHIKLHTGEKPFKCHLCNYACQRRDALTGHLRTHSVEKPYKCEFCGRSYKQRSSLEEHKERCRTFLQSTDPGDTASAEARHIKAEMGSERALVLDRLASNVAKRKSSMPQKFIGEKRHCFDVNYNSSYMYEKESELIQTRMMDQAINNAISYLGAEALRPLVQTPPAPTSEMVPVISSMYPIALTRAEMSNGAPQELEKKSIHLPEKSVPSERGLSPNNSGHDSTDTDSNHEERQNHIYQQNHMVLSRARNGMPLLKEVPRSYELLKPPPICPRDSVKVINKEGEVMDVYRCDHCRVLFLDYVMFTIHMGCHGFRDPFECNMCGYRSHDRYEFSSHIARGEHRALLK
T1 sequence (Q96SW2 whole entry): as the sequence (Q96SW2 whole entry) above
T1 sequence (Q16531 whole entry partner): as the sequence (Q16531 whole entry partner) above

| Structure (SMILES) | inhibition at 0.5 µM [6] [%] | inhibition at 2 µM [6] [%] | IC50 ([6]; CRBN binding, HTRF, 3 hours at room temperature, read-out: HTRF IC50) [nM] | IKZF3 substrate protein remaining % [1, 8] | IKZF2 substrate protein remaining % [2, 8] | CK1α substrate protein remaining % [3, 8] | Wee1 substrate protein remaining % [4, 8] | IKZF 1 substrate protein remaining % [5, 8] | GSPT1 substrate protein remaining % [7, 8] | IKZF3 substrate protein remaining % [1, 9] | IKZF2 substrate protein remaining % [2, 9] | CK1α substrate protein remaining % [3, 9] | Wee1 substrate protein remaining % [4, 9] | IKZF 1 substrate protein remaining % [5, 9] | GSPT1 substrate protein remaining % [7, 9] |
| --- | --- | --- | --- | --- | --- | --- | --- | --- | --- | --- | --- | --- | --- | --- | --- |
| O=C1CCC(N2Cc3c(CN4CCC(c5cccc6c(F)cccc56)CC4)cccc3C2=S)C(=O)N1 (stereo not drawn) [GT-08855, 3-(4-((4-(5-fluoronaphthalen-1-yl)piperidin-1-yl)methyl)-1-thioxoisoindolin-2-yl)piperidine-2,6-dione] | 30 to 40 | 60 to 80 | – | B (80%< substrate protein remaining %≤ 100%) | B (80%< substrate protein remaining %≤ 100%) | B (80%< substrate protein remaining %≤ 100%) | A (0% ≤ substrate protein remaining % ≤ 80%) | B (80%< substrate protein remaining %≤ 100%) | A (0% ≤ substrate protein remaining % ≤ 80%) | – | – | – | – | – | – |
| Cc1ccc(C2=CCN(Cc3cccc4c3CN(C3CCC(=O)NC3=O)C4=S)CC2)s1 (stereo not drawn) [GT-08307, 3-(4-((4-(5-methylthiophen-2-yl)-3,6-dihydropyridin-1(2H)-yl)methyl)-1-thioxoisoindolin-2-yl)piperidine-2,6-dione] | 53 to 60 | 80 to 100 | – | B (80%< substrate protein remaining %≤ 100%) | B (80%< substrate protein remaining %≤ 100%) | B (80%< substrate protein remaining %≤ 100%) | A (0% ≤ substrate protein remaining % ≤ 80%) | B (80%< substrate protein remaining %≤ 100%) | B (80%< substrate protein remaining %≤ 100%) | – | – | – | – | – | – |
| Cc1nc(C2CCN(Cc3ccc4c(c3)CN(C3CCC(=O)NC3=O)C4=S)CC2)c2c3c(sc2n1)CCC3 (stereo not drawn) [GT-09312, 3-(5-((4-(2-methyl-6,7-dihydro-5H-cyclopenta[4,5]thieno[2,3-d]pyrimidin-4-yl)piperidin-1-yl)methyl)-1-thioxoisoindolin-2-yl)piperidine-2,6-dione] | 60 to 80 | 80 to 100 | – | A (0% ≤ substrate protein remaining % ≤ 80%) | B (80%< substrate protein remaining %≤ 100%) | B (80%< substrate protein remaining %≤ 100%) | B (80%< substrate protein remaining %≤ 100%) | B (80%< substrate protein remaining %≤ 100%) | A (0% ≤ substrate protein remaining % ≤ 80%) | – | – | – | – | – | – |
| O=C1CCC(N2Cc3c(CN4CCC(n5cnc6cc(F)ccc65)CC4)cccc3C2=S)C(=O)N1 (stereo not drawn) [GT-08842, 3-(4-((4-(5-fluoro-1H-benzo[d]imidazol-1-yl)piperidin-1-yl)methyl)-1-thioxoisoindolin-2-yl)piperidine-2,6-dione] | 40 to 53 | 80 to 100 | – | – | – | – | – | – | – | B (80%< substrate protein remaining %≤ 100%) | B (80%< substrate protein remaining %≤ 100%) | B (80%< substrate protein remaining %≤ 100%) | A (0% ≤ substrate protein remaining % ≤ 80%) | B (80%< substrate protein remaining %≤ 100%) | B (80%< substrate protein remaining %≤ 100%) |
| O=C1CCC(N2Cc3cc(CN4CCC(c5cccc6c(F)cccc56)CC4)ccc3C2=S)C(=O)N1 (stereo not drawn) [GT-09275, 3-(5-((4-(5-fluoronaphthalen-1-yl)piperidin-1-yl)methyl)-1-thioxoisoindolin-2-yl)piperidine-2,6-dione] | 30 to 40 | 60 to 80 | – | B (80%< substrate protein remaining %≤ 100%) | B (80%< substrate protein remaining %≤ 100%) | B (80%< substrate protein remaining %≤ 100%) | B (80%< substrate protein remaining %≤ 100%) | B (80%< substrate protein remaining %≤ 100%) | A (0% ≤ substrate protein remaining % ≤ 80%) | – | – | – | – | – | – |
| O=C1CCC(N2Cc3c(CN4CCN(c5c(F)cncc5Cl)CC4)cccc3C2=S)C(=O)N1 (stereo not drawn) [GT-08802, 3-(4-((4-(3-chloro-5-fluoropyridin-4-yl)piperazin-1-yl)methyl)-1-thioxoisoindolin-2-yl)piperidine-2,6-dione] | 53 to 60 | 80 to 100 | – | – | – | – | – | – | – | B (80%< substrate protein remaining %≤ 100%) | B (80%< substrate protein remaining %≤ 100%) | B (80%< substrate protein remaining %≤ 100%) | A (0% ≤ substrate protein remaining % ≤ 80%) | B (80%< substrate protein remaining %≤ 100%) | B (80%< substrate protein remaining %≤ 100%) |

More lines, main results first:

| inhibition at 0.5 µM [6] [%] | inhibition at 2 µM [6] [%] | IC50 ([6]; CRBN binding, HTRF, 3 hours at room temperature, read-out: HTRF IC50) [nM] | Structure (SMILES) | IKZF3 substrate protein remaining % [1, 8] | IKZF2 substrate protein remaining % [2, 8] | CK1α substrate protein remaining % [3, 8] | Wee1 substrate protein remaining % [4, 8] | IKZF 1 substrate protein remaining % [5, 8] | GSPT1 substrate protein remaining % [7, 8] | IKZF3 substrate protein remaining % [1, 9] | IKZF2 substrate protein remaining % [2, 9] | CK1α substrate protein remaining % [3, 9] | Wee1 substrate protein remaining % [4, 9] | IKZF 1 substrate protein remaining % [5, 9] | GSPT1 substrate protein remaining % [7, 9] |
| --- | --- | --- | --- | --- | --- | --- | --- | --- | --- | --- | --- | --- | --- | --- | --- |
| 60 to 80 | 80 to 100 | – | O=C1CCC(N2Cc3c(CN4CCN(c5ccncc5)CC4)cccc3C2=S)C(=O)N1 (stereo not drawn) [GT-08726, 3-(4-((4-(pyridin-4-yl)piperazin-1-yl)methyl)-1-thioxoisoindolin-2-yl)piperidine-2,6-dione] | – | – | – | – | – | – | A (0% ≤ substrate protein remaining % ≤ 80%) | A (0% ≤ substrate protein remaining % ≤ 80%) | B (80%< substrate protein remaining %≤ 100%) | A (0% ≤ substrate protein remaining % ≤ 80%) | B (80%< substrate protein remaining %≤ 100%) | A (0% ≤ substrate protein remaining % ≤ 80%) |
| 53 to 60 | 60 to 80 | – | O=C1CCC(N2Cc3c(CN4CCN(c5c(F)cccc5F)CC4)cccc3C2=S)C(=O)N1 (stereo not drawn) [GT-08630, 3-(4-((4-(2,6-difluorophenyl)piperazin-1-yl)methyl)-1-thioxoisoindolin-2-yl)piperidine-2,6-dione] | – | – | – | – | – | – | B (80%< substrate protein remaining %≤ 100%) | B (80%< substrate protein remaining %≤ 100%) | B (80%< substrate protein remaining %≤ 100%) | A (0% ≤ substrate protein remaining % ≤ 80%) | B (80%< substrate protein remaining %≤ 100%) | A (0% ≤ substrate protein remaining % ≤ 80%) |
| – | – | 100 to 500 | O=C1CCC(N2Cc3c(CN4CCC(c5noc6cc(F)ccc56)CC4)cccc3C2=S)C(=O)N1 (stereo not drawn) [GT-04997, 3-(4-((4-(6-fluorobenzo[d]isoxazol-3-yl)piperidin-1-yl)methyl)-1-thioxoisoindolin-2-yl)piperidine-2,6-dione] | B (80%< substrate protein remaining %≤ 100%) | B (80%< substrate protein remaining %≤ 100%) | B (80%< substrate protein remaining %≤ 100%) | A (0% ≤ substrate protein remaining % ≤ 80%) | B (80%< substrate protein remaining %≤ 100%) | B (80%< substrate protein remaining %≤ 100%) | – | – | – | – | – | – |
| 60 to 80 | 80 to 100 | – | O=C1CCC(N2Cc3c(CN4CCN(c5nsc6ccccc56)CC4)cccc3C2=S)C(=O)N1 (stereo not drawn) [GT-08366, 3-(4-((4-(benzo[d]isothiazol-3-yl)piperazin-1-yl)methyl)-1-thioxoisoindolin-2-yl)piperidine-2,6-dione] | – | – | – | – | – | – | B (80%< substrate protein remaining %≤ 100%) | B (80%< substrate protein remaining %≤ 100%) | B (80%< substrate protein remaining %≤ 100%) | A (0% ≤ substrate protein remaining % ≤ 80%) | B (80%< substrate protein remaining %≤ 100%) | B (80%< substrate protein remaining %≤ 100%) |
| 53 to 60 | 60 to 80 | – | Cc1nc(C2CCN(Cc3cccc4c3CN(C3CCC(=O)NC3=O)C4=S)CC2)c2c3c(sc2n1)CCCC3 (stereo not drawn) [GT-08933, 3-(4-((4-(2-methyl-5,6,7,8-tetrahydrobenzo[4,5]thieno[2,3-d]pyrimidin-4-yl)piperidin-1-yl)methyl)-1-thioxoisoindolin-2-yl)piperidine-2,6-dione] | B (80%< substrate protein remaining %≤ 100%) | B (80%< substrate protein remaining %≤ 100%) | B (80%< substrate protein remaining %≤ 100%) | A (0% ≤ substrate protein remaining % ≤ 80%) | A (0% ≤ substrate protein remaining % ≤ 80%) | A (0% ≤ substrate protein remaining % ≤ 80%) | – | – | – | – | – | – |
